Series [1] addresses CYP1A2 (Homo sapiens, UniProt P05177). The series is described as follows: In vitro oxidative metabolism. In kind it is in vitro ADME.
Series [2] concerns pregnant rats. To be noted: rat, in vivo.
Series [3] has as its system human plasma proteins. Nature of the series: In vitro plasma protein binding. In kind it is in vitro ADME.
In series [4] the target is CYP2C8 (Homo sapiens, UniProt P10632). Nature of the series: In vitro oxidative metabolism. In kind it is in vitro ADME.
Series [5] can be described thus: Pharmacokinetics by race and gender. Format: in vivo, human.
Series [6] deals with OATP1B1 (Homo sapiens, UniProt Q9Y6L6). Nature of the series: In vitro OATP1B1 inhibition. Format: in vitro ADME.
In series [7] the test system is rats. Nature of the series: In vivo unscheduled DNA synthesis assay. The following applies: rat unscheduled DNA synthesis, 11 times human clinical exposure (Cmax).

Structures are written as SMILES. Entries after “also recorded” stand apart in the source; their conditions may differ. Bounds are passed on as bounds.

Chain of CYP2C8 (P10632 whole entry): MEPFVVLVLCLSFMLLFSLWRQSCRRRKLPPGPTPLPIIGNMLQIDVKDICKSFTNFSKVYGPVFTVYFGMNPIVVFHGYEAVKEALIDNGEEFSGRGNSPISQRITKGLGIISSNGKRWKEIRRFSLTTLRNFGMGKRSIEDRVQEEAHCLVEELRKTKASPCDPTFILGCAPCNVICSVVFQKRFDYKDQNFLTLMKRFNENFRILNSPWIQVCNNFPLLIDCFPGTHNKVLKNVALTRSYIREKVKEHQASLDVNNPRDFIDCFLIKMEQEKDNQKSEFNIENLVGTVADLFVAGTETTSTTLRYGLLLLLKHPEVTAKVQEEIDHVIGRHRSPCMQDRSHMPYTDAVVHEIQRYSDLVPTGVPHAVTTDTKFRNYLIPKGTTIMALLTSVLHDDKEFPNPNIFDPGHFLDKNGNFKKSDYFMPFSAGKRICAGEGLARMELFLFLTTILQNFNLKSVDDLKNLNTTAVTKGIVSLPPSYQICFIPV
Chain of CYP1A2 (P05177 whole entry): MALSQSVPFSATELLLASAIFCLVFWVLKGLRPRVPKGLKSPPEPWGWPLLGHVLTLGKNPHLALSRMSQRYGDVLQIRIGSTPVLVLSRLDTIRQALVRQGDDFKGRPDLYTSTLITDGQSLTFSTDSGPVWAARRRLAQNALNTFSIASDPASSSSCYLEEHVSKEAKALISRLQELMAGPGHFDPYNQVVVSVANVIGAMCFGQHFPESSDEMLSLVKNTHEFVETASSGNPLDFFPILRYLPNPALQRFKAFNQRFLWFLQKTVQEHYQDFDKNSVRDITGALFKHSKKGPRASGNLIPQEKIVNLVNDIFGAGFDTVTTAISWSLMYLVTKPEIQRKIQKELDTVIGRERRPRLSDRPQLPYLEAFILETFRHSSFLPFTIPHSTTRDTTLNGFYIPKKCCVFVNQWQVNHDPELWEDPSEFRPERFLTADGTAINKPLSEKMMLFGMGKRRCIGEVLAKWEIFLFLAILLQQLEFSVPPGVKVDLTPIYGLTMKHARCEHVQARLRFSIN
Chain of OATP1B1 (Q9Y6L6 whole entry): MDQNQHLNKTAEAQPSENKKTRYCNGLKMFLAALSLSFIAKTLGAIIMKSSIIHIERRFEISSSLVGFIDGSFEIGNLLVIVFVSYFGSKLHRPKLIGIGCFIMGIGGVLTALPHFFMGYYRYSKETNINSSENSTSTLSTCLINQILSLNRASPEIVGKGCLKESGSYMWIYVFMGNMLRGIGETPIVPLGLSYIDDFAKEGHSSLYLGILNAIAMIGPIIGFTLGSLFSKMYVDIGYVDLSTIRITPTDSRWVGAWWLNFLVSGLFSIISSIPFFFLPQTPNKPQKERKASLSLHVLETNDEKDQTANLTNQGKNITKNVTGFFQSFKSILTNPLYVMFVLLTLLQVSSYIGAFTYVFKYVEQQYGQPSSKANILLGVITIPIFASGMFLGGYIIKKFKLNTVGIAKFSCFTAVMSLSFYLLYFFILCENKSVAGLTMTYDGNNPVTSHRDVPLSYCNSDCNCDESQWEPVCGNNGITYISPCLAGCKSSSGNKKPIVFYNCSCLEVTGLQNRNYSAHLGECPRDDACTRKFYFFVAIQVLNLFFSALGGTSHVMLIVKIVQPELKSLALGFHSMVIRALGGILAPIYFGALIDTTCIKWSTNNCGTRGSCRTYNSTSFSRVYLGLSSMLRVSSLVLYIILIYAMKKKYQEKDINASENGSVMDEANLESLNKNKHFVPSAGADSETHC

For the compound `CC1=NN(c2ccc(C)c(C)c2)C(=O)/C1=N\Nc1cccc(-c2cccc(C(=O)O)c2)c1O` [eltrombopag, 3′-[(2Z)-[1-(3,4-dimethylphenyl)-1,5-dihydro-3-methyl-5-oxo-4H-pyrazol-4-ylidene]hydrazino]-2′-hydroxy-[1,1′-biphenyl]-3-carboxylic acid], in series [1], the “role of CYP1A2 in oxidative metabolism” value is reported as “responsible; also recorded: involved”. For the same compound, in series [2], the embryofetal findings entry is “Decreased fetal weights and a slight increase in the presence of cervical ribs”; the major structural malformations entry is listed as “no evidence of major structural malformations”. The “plasma protein binding” value in series [3] was “highly bound to plasma proteins”. In series [3] (in vitro), the “bound to human plasma proteins” value was greater than 99%. Also, the “role of CYP2C8 in oxidative metabolism” value in series [4] is given as “responsible; also recorded: involved”. Further, the “plasma exposure higher than in non-Asian subjects” value in series [5] (East Asian subjects with ITP) is recorded as “approximately 70%”. Further, the systemic exposure higher entry in series [5] (healthy African-American subjects) is on record as “approximately 40%”. For the same compound, the “apparent clearance greater in males than females” value in series [5] (population PK model, adjusted for body weight) amounted to 27%. In addition, the “inhibition of OATP1B1” value in series [6] was “inhibitor”. Further, the mutagenicity/clastogenicity entry in series [7] is “not mutagenic or clastogenic”.

Values taken from patent US20140142155A1, “METHOD OF TREATING THROMBOCYTOPENIA” (GlaxoSmithKline LLC, priority 2008, published 2014).
